Laboratory results published in ChEMBL document CHEMBL1221226 (Nat Chem Biol, 2009).
Positions of bridges follow the written chain, without caps; N, C: chain ends. Residues, ends and D or L forms follow the SMILES beside them. *: point of attachment. X1 = CC(CN[C@@H](Cc1cnc[nH]1)C(=O)O)C(=O)*

Assays:
[1] = biological target: Glucagon-like peptide 1 receptor (Homo sapiens, UniProt P43220); experiment: Agonist activity at GLP1R expressed in HEK293 cells assessed as stimulation of cAMP production by luciferase reporter gene assay; assay type: functional, cell-based
Glucagon receptor = Glucagon receptor (Homo sapiens, UniProt P47871); experiment: Agonist activity at GCGR expressed in HEK293 cells assessed as stimulation of cAMP production by luciferase reporter gene assay; assay type: functional, cell-based
Sequence of Glucagon receptor (P47871 whole entry): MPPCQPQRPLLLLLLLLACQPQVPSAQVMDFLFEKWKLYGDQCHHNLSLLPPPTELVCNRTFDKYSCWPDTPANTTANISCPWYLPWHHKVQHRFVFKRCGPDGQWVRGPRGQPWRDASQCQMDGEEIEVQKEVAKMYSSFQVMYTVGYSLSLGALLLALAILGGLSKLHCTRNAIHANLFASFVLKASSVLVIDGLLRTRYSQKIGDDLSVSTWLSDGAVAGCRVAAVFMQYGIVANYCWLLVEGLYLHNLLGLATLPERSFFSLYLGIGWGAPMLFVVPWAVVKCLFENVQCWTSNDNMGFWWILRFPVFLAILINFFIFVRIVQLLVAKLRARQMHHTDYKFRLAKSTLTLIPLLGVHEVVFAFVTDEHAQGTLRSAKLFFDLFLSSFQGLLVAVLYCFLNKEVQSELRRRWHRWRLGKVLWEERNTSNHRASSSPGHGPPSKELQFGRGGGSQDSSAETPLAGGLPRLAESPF

Sequence of Glucagon-like peptide 1 receptor (P43220 whole entry): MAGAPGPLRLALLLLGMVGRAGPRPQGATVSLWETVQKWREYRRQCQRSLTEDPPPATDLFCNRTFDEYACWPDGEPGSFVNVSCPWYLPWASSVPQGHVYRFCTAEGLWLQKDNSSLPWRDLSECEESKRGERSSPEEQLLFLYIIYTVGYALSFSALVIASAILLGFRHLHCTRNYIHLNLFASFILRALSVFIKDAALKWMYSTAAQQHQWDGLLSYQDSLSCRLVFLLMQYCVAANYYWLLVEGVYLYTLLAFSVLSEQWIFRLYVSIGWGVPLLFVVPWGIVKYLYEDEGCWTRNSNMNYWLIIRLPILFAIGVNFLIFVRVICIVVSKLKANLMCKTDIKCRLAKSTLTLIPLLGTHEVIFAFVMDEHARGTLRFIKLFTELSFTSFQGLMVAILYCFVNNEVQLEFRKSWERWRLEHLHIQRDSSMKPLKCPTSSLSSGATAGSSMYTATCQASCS

EC50 [1] [nM] | EC50 (Glucagon receptor) [nM] | Compound
0.014 | 0.59 | CC[C@H](C)[C@H](NC(=O)[C@H](Cc1ccccc1)NC(=O)[C@H](CCC(=O)O)NC(=O)[C@H](CCCCN)NC(=O)[C@H](C)NC(=O)[C@H](C)NC(=O)[C@H](CCC(N)=O)NC(=O)[C@H](CCC(=O)O)NC(=O)[C@H](CC(=O)O)NC(=O)[C@H](CC(C)C)NC(=O)[C@H](Cc1ccc(O)cc1)NC(=O)[C@H](CCCCN)NC(=O)[C@H](CO)NC(=O)[C@H](Cc1ccc(O)cc1)NC(=O)[C@H](CC(=O)O)NC(=O)[C@H](CO)NC(=O)[C@@H](NC(=O)[C@H](Cc1ccccc1)NC(=O)[C@@H](NC(=O)CNC(=O)[C@H](CCC(N)=O)NC(=O)C(C)CN[C@@H](Cc1cnc[nH]1)C(=O)O)[C@@H](C)O)[C@@H](C)O)C(=O)N[C@@H](C)C(=O)N[C@@H](Cc1c[nH]c2ccccc12)C(=O)N[C@@H](CC(C)C)C(=O)N[C@@H](CCSC)C(=O)N[C@@H](CC(N)=O)C(=O)N[C@H](C(=O)O)[C@@H](C)O (some centres undefined) (X1-QGTFTSDYSKYLDEQAAKEFIAWLMNT-OH)
0.013 | 0.055 | CC[C@H](C)[C@H](NC(=O)[C@H](Cc1ccccc1)NC(=O)[C@H](CCC(=O)O)NC(=O)[C@@H]1CCCCNC(=O)CC[C@H](NC(=O)[C@H](CC(=O)O)NC(=O)[C@H](CC(C)C)NC(=O)[C@H](Cc2ccc(O)cc2)NC(=O)[C@H](CCCCN)NC(=O)[C@H](CO)NC(=O)[C@H](Cc2ccc(O)cc2)NC(=O)[C@H](CC(=O)O)NC(=O)[C@H](CO)NC(=O)[C@@H](NC(=O)[C@H](Cc2ccccc2)NC(=O)[C@@H](NC(=O)CNC(=O)[C@H](CCC(N)=O)NC(=O)C(C)CN[C@@H](Cc2cnc[nH]2)C(=O)O)[C@@H](C)O)[C@@H](C)O)C(=O)N[C@@H](CCC(N)=O)C(=O)N[C@@H](C)C(=O)N[C@@H](C)C(=O)N1)C(=O)N[C@@H](C)C(=O)N[C@@H](Cc1c[nH]c2ccccc12)C(=O)N[C@@H](CC(C)C)C(=O)N[C@@H](CCSC)C(=O)N[C@@H](CC(N)=O)C(=O)N[C@H](C(=O)O)[C@@H](C)O (some centres undefined) (X1-QGTFTSDYSKYLDEQAAKEFIAWLMNT-OH; lactam 14-18)
